Source: patent US20170209468A1, “POLY(BETA-AMINO ESTER) CONJUGATES FOR CARTILAGE AGENT DELIVERY AND METHODS” (University College Cardiff Consultants Limited, priority 2014, published 2017)

System: chondrocytes
Assay: Viability of chondrocytes after exposure (MTT and LDH assays)
Type: cell-based, bovine
Settings: 15 μl of DEX 4 mg/ml solution per 1 ml well, up to 3 days
Method: The cartilage samples as described in Example 4 underwent a 1 hour predigestion stage with 0.4% w/v pronase (Sigma, UK), dissolved in 4-(2-hydroxyethyl)-1-piperazineethanesulfonic acid (HEPES)-buffered DMEM (Gibco, UK) supplemented with 50 U/50 mg/mL penicillin-streptomycin (Sigma Aldrich) and 2.5 mg/mL amphotericin B. Cartilages samples were placed in sterile eppendorfs containing the filter-sterilized enzyme solution by passage through a […] filter at a concentration of 1 ml solution for 5 cartilage extracts. The samples were incubated at 37° C. and the cartilage fragments were then washed twice with sterile PBS and digested with 1 ml each 6 cartilage sample of collagenase II (Sigma, UK) 0.1% w/v for 16 h at 37° C. Collagenase II was prepared in 4-(2-hydroxyethyl)-1-piperazineethanesulfonic acid (HEPES)-buffered DMEM (Gibco, UK) supplemented with 50 U/50 mg/mL penicillin-streptomycin (Sigma Aldrich and filter sterilised. […]
Chondrocytes viability was assessed through MTT and LDH assay kits (Sigma, UK) according to manufacturer's protocols. […]

C[C@@H]1C[C@H]2[C@@H]3CCC4=CC(=O)C=C[C@]4(C)[C@@]3(F)[C@@H](O)C[C@]2(C)[C@@]1(O)C(=O)COP(=O)(O)O [DEX-P, dexamethasone phosphate]
chondrocytes viability (MTT and LDH): same viability
